From ChEMBL document CHEMBL1629455, “Discovery of a novel class of biphenyl pyrazole sodium channel blockers for treatment of neuropathic pain” (Bioorg Med Chem Lett, 2010)

Tests used:
[1] = test system: Rattus norvegicus; test: Antiallodynic activity in rat spinal nerve ligation model of neuropathic pain assessed as reversal of allodynia at 30 mg/kg, po after 2 hrs; assay type: functional
[2] = test system: Rattus norvegicus; test: Antiallodynic activity in rat spinal nerve ligation model of neuropathic pain assessed as reversal of allodynia at 10 mg/kg, po after 2 hrs; assay type: functional; settings: Rattus norvegicus, Spinal nerve, 2 h
[3] = target: Cav1.2 (L-type calcium channel subunit alpha-1C) (Homo sapiens, UniProt Q13936); test: Inhibition of DLZ binding to Cav1.2 at 10 uM; settings: probe DLZ
[4] = test system: Canis familiaris; test: Cardiotoxicity in anesthetized dog assessed as effect on mean arterial pressure at 3 mg/kg, iv; assay type: toxicity, organism-based, Canis lupus familiaris, Artery; design: dose 3 mg/kg, route intravenous; settings: in vivo
[5] = target: T1, Nuclear receptor subfamily 1 group I member 2 (Homo sapiens, UniProt O75469); test: Induction of PXR
T1 sequence (O75469 whole entry): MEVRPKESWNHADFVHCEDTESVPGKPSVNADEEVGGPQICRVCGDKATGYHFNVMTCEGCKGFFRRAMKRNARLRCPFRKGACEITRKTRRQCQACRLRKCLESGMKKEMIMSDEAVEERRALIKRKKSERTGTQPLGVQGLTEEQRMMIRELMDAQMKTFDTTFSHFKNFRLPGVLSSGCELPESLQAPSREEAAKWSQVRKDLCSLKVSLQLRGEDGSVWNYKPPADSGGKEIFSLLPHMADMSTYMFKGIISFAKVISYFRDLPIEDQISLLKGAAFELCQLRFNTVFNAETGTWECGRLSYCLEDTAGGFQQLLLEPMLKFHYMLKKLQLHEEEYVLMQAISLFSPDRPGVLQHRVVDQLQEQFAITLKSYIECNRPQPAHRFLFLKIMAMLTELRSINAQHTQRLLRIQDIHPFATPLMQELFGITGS

[6] = test system: Canis familiaris; test: Cardiotoxicity in anesthetized dog assessed as increase in PR interval at 10 mg/kg, iv; assay type: toxicity, organism-based, Canis lupus familiaris; design: dose 10 mg/kg, route intravenous; settings: in vivo
[7] = AUC in rat at 3 mg/kg, po; assay type: ADME, organism-based; design: dose 3 mg/kg, route oral; settings: plasma
[8] = test system: Rattus norvegicus; test: Neurotoxicity in rat assessed as effect on motor coordination at 30 mg/kg, po by rotarod test (reference value: 18%); assay type: toxicity, organism-based; design: dose 30 mg/kg, route oral; settings: in vivo
[9] = test system: Rattus norvegicus; test: Antiallodynic activity in rat […] model assessed as reversal of complete Freund's adjuvant-induced allodynia at 30 mg/kg, po after 4 hrs; assay type: functional
[10] = test system: Canis familiaris; test: Cardiotoxicity in anesthetized dog assessed as effect on QTc interval at 10 mg/kg, iv; assay type: toxicity, organism-based, Canis lupus familiaris; design: dose 10 mg/kg, route intravenous; settings: in vivo
[11] = target: Cytochrome P450 2D6 (Homo sapiens, UniProt P10635); test: Inhibition of CYP2D6; assay type: ADME
[12] = target: Cytochrome P450 3A4 (Homo sapiens, UniProt P08684); test: Inhibition of CYP3A4; assay type: ADME
[13] = target: hERG (KCNH2) (Homo sapiens, UniProt Q12809); test: Inhibition of human ERG at 30 uM by electrophysiology assay
[14] = test system: Canis familiaris; test: Cardiotoxicity in anesthetized dog assessed as effect on mean arterial pressure at 10 mg/kg, iv; assay type: toxicity, organism-based, Canis lupus familiaris, Artery; design: dose 10 mg/kg, route intravenous; settings: in vivo
[15] = test system: Plasma; test: Plasma concentration in dog at 10 mg/kg, iv; assay type: ADME, organism-based, Canis lupus familiaris; design: dose 10 mg/kg, route intravenous; settings: in vivo
[16] = test system: Canis familiaris; test: Clearance in dog plasma at 0.5 mg/kg, iv and 2 mg/kg, po; assay type: ADME, organism-based, Canis lupus familiaris; settings: in vivo
[17] = AUC in dog at 2 mg/kg, po; assay type: ADME, organism-based, Canis lupus familiaris; design: dose 2 mg/kg, route oral; settings: plasma
[18] = target: Sodium channel protein type 5 subunit alpha (Homo sapiens, UniProt Q14524); test: Inhibition of Nav1.5 by VIPR assay
[19] = Cmax in dog at 0.5 mg/kg, iv and 2 mg/kg, po; assay type: ADME, organism-based, Canis lupus familiaris; settings: in vivo
[20] = Half life in dog at 0.5 mg/kg, iv and 2 mg/kg, po; assay type: ADME, organism-based, Canis lupus familiaris; settings: in vivo
[21] = Metabolic stability in dog liver microsomes assessed as compound remaining after 60 mins in presence of 10 uM substrate; assay type: ADME, Canis lupus familiaris, Microsome; settings: read-out: Stability
[22] = test system: Canis familiaris; test: Cardiotoxicity in anesthetized dog assessed as effect on QTc interval at 3 mg/kg, iv; assay type: toxicity, organism-based, Canis lupus familiaris; design: dose 3 mg/kg, route intravenous; settings: in vivo
[23] = test system: Canis familiaris; test: Cardiotoxicity in anesthetized dog assessed as effect on QRS interval at 10 mg/kg, iv; assay type: toxicity, organism-based, Canis lupus familiaris; design: dose 10 mg/kg, route intravenous; settings: in vivo
[24] = test system: Mus musculus; test: Neurotoxicity in conscious mouse assessed as effect on motor activity at 100 mg/kg after 2 hrs; assay type: toxicity, organism-based; design: dose 100 mg/kg; settings: in vivo
[25] = test system: Canis familiaris; test: Cardiotoxicity in anesthetized dog assessed as effect on mean arterial pressure at 1 mg/kg, iv; assay type: toxicity, organism-based, Canis lupus familiaris, Artery; design: dose 1 mg/kg, route intravenous; settings: in vivo
[26] = Metabolic stability in human liver microsomes assessed as compound remaining after 60 mins in presence of 10 uM substrate; assay type: ADME, Microsome; settings: read-out: Stability
[27] = Half life in rat at 1 mg/kg, iv and 3 mg/kg, po; assay type: ADME, organism-based; settings: in vivo
[28] = test system: Rattus norvegicus; test: Antiallodynic activity in rat spinal nerve ligation model of neuropathic pain assessed as reversal of allodynia at 3 mg/kg, po after 4 hrs; assay type: functional
[29] = test system: Canis familiaris; test: Cardiotoxicity in anesthetized dog assessed as effect on heart rate at 1 mg/kg, iv; assay type: toxicity, organism-based, Canis lupus familiaris; design: dose 1 mg/kg, route intravenous; settings: in vivo
[30] = test system: Canis familiaris; test: Cardiotoxicity in anesthetized dog assessed as effect on QRS interval at 3 mg/kg, iv; assay type: toxicity, organism-based, Canis lupus familiaris; design: dose 3 mg/kg, route intravenous; settings: in vivo
[31] = Bioavailability in rat at 1 mg/kg, iv and 3 mg/kg, po; assay type: ADME, organism-based; settings: in vivo
[32] = target: Sodium channel protein type 10 subunit alpha (Homo sapiens, UniProt Q9Y5Y9); test: Inhibition of human Nav1.8 by VIPR assay
[33] = test system: Canis familiaris; test: Cardiotoxicity in anesthetized dog assessed as effect on heart rate at 10 mg/kg, iv; assay type: toxicity, organism-based, Canis lupus familiaris; design: dose 10 mg/kg, route intravenous; settings: in vivo
[34] = test system: Mus musculus; test: Neurotoxicity in conscious mouse assessed as effect on body temperature at 100 mg/kg after 2 hrs; assay type: toxicity, organism-based; design: dose 100 mg/kg; settings: in vivo
[35] = test system: Canis familiaris; test: Cardiotoxicity in anesthetized dog assessed as effect on QRS interval at 1 mg/kg, iv; assay type: toxicity, organism-based, Canis lupus familiaris; design: dose 1 mg/kg, route intravenous; settings: in vivo
[36] = target: Cytochrome P450 2C9 (Homo sapiens, UniProt P11712); test: Inhibition of CYP2C9; assay type: ADME
[37] = test system: Rattus norvegicus; test: Clearance in rat plasma at 1 mg/kg, iv and 3 mg/kg, po; assay type: ADME, organism-based; settings: in vivo
[38] = test system: Rattus norvegicus; test: Antiallodynic activity in rat […] model assessed as reversal of complete Freund's adjuvant-induced allodynia at 30 mg/kg, po after 2 hrs; assay type: functional
[39] = AUC in dog at 20 mg/kg, po; assay type: ADME, organism-based, Canis lupus familiaris; design: dose 20 mg/kg, route oral; settings: plasma
[40] = test system: Mus musculus; test: Neurotoxicity in conscious mouse assessed as effect on CNS function at 100 mg/kg after 24 hrs; assay type: toxicity, organism-based, Central nervous system; design: dose 100 mg/kg; settings: in vivo
[41] = test system: Mus musculus; test: Neurotoxicity in conscious mouse assessed as effect on motor activity at 100 mg/kg after 24 hrs; assay type: toxicity, organism-based; design: dose 100 mg/kg; settings: in vivo
[42] = test system: Mus musculus; test: Neurotoxicity in conscious mouse assessed as effect on behavior at 100 mg/kg after 5 hrs; assay type: toxicity, organism-based; design: dose 100 mg/kg; settings: in vivo
[43] = test system: Plasma; test: Plasma concentration in dog at 1 mg/kg, iv; assay type: ADME, organism-based, Canis lupus familiaris; design: dose 1 mg/kg, route intravenous; settings: in vivo
[44] = test system: Mus musculus; test: Neurotoxicity in conscious mouse assessed as effect on body temperature at 100 mg/kg after 5 hrs; assay type: toxicity, organism-based; design: dose 100 mg/kg; settings: in vivo
[45] = test system: Mus musculus; test: Neurotoxicity in conscious mouse assessed as effect on behavior at 100 mg/kg after 24 hrs; assay type: toxicity, organism-based; design: dose 100 mg/kg; settings: in vivo
[46] = test system: Mus musculus; test: Neurotoxicity in conscious mouse assessed as effect on motor activity at 100 mg/kg after 5 hrs; assay type: toxicity, organism-based; design: dose 100 mg/kg; settings: in vivo
[47] = test system: Rattus norvegicus; test: Antiallodynic activity in rat spinal nerve ligation model of neuropathic pain assessed as reversal of allodynia at 10 mg/kg, po after 4 hrs; assay type: functional; settings: Rattus norvegicus, Spinal nerve, 4 h

Cytochrome P450 2D6, sequence (P10635 whole entry): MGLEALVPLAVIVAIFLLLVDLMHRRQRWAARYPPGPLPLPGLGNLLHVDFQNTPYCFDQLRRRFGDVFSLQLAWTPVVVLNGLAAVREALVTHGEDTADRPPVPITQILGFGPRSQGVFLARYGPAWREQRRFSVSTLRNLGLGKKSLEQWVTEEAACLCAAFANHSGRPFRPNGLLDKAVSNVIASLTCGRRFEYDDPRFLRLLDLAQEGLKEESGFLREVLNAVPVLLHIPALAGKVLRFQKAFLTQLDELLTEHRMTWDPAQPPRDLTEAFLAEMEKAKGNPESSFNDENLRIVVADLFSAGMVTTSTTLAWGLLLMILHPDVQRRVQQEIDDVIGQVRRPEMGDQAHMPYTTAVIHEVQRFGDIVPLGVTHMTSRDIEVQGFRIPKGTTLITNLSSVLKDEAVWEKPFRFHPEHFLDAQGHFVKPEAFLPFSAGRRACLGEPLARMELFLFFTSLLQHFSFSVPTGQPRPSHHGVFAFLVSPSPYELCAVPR
hERG (KCNH2), sequence (Q12809 whole entry): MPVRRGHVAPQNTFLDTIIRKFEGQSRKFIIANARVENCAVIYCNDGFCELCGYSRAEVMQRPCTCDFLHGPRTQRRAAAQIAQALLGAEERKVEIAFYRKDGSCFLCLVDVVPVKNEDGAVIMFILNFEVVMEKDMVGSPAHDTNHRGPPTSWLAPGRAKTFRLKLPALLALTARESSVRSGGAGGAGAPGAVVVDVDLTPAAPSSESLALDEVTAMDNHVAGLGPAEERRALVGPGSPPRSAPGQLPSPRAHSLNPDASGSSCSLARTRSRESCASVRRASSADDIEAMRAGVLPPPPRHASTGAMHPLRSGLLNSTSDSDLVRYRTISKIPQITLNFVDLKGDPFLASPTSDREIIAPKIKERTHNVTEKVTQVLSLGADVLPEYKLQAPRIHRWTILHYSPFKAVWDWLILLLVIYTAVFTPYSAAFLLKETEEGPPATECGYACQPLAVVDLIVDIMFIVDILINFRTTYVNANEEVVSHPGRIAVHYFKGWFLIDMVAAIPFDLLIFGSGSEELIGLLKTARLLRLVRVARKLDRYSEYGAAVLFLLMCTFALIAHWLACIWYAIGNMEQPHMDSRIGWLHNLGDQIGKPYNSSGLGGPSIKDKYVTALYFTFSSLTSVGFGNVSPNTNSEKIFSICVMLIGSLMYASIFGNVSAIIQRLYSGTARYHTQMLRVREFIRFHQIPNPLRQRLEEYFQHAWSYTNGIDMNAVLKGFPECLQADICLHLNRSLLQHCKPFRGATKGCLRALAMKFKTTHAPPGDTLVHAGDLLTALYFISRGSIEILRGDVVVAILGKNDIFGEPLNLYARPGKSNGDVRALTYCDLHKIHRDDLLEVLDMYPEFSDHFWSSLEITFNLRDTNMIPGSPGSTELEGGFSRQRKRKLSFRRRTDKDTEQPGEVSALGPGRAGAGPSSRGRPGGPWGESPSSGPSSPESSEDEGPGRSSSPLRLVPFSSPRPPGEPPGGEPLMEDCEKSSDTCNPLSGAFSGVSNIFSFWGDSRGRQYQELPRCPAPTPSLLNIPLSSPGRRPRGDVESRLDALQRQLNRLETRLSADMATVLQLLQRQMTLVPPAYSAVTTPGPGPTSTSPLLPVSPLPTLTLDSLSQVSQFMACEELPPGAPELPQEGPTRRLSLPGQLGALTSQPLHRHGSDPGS
Cav1.2 (L-type calcium channel subunit alpha-1C), sequence (Q13936 whole entry): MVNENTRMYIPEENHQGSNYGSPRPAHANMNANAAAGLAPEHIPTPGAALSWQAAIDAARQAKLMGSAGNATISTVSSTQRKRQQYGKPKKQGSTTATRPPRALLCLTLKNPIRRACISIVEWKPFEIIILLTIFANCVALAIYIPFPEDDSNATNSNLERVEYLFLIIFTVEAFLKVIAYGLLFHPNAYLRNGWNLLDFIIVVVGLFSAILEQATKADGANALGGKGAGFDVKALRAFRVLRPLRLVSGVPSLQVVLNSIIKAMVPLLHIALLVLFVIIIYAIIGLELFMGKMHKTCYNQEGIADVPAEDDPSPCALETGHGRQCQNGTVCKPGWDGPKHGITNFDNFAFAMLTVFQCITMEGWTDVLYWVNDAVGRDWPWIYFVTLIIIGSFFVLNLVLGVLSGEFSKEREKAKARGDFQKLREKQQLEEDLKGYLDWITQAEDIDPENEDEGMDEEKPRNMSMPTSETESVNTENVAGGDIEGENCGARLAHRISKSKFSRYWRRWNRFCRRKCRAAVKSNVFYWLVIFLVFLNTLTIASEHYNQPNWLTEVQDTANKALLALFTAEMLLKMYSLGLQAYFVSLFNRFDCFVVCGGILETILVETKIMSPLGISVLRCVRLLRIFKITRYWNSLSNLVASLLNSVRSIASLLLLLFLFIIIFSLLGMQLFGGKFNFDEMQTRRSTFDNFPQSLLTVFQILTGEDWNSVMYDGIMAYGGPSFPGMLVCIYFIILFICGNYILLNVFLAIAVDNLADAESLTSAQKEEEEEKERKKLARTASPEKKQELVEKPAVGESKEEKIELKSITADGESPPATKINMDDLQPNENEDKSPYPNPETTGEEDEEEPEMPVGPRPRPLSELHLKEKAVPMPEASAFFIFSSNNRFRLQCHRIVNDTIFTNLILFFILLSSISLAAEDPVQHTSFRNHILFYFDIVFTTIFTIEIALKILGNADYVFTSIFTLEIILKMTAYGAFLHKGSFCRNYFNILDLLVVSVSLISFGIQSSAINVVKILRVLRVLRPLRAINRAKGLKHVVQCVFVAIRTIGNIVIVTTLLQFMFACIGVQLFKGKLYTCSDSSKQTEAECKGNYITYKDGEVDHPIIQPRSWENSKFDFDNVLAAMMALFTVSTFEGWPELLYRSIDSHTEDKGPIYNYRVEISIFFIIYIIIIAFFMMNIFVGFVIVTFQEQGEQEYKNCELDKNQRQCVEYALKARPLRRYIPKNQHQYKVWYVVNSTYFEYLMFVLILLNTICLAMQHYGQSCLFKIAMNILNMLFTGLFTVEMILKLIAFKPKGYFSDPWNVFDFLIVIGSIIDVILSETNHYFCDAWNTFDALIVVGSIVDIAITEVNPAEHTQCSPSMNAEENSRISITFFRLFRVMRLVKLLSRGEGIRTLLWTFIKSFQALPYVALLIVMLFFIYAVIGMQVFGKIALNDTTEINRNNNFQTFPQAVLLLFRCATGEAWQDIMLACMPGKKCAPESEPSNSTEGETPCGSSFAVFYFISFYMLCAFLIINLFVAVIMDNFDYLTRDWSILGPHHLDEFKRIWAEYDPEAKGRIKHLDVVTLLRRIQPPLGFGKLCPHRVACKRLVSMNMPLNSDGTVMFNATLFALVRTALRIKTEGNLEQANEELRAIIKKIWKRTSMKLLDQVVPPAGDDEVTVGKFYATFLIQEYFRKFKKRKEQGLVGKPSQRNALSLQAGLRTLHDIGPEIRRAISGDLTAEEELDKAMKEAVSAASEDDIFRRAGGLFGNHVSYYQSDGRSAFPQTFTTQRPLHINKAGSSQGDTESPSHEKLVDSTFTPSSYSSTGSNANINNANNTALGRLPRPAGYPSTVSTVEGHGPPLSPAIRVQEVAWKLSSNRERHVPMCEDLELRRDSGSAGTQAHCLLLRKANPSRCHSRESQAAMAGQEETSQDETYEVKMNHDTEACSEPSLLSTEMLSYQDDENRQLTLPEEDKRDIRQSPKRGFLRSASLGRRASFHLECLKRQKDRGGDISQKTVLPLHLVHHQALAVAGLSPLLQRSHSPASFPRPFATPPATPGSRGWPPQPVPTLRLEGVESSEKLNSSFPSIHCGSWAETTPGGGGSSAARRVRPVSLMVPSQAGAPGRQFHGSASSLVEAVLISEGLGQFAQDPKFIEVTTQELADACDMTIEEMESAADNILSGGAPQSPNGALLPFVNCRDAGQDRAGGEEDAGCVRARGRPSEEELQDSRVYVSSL
Cytochrome P450 2C9, sequence (P11712 whole entry): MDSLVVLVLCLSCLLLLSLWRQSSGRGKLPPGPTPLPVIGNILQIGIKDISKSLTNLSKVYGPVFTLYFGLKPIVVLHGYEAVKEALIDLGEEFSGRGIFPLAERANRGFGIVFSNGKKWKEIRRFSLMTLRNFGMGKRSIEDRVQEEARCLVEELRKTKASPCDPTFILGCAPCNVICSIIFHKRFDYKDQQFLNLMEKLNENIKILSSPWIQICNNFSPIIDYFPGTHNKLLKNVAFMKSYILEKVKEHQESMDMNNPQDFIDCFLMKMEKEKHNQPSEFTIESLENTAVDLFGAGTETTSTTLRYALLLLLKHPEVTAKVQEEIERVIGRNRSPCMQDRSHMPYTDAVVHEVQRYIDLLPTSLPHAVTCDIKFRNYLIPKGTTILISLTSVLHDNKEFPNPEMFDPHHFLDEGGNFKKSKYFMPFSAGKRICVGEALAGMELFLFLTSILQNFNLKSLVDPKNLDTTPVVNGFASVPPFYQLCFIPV
Cytochrome P450 3A4, sequence (P08684 whole entry): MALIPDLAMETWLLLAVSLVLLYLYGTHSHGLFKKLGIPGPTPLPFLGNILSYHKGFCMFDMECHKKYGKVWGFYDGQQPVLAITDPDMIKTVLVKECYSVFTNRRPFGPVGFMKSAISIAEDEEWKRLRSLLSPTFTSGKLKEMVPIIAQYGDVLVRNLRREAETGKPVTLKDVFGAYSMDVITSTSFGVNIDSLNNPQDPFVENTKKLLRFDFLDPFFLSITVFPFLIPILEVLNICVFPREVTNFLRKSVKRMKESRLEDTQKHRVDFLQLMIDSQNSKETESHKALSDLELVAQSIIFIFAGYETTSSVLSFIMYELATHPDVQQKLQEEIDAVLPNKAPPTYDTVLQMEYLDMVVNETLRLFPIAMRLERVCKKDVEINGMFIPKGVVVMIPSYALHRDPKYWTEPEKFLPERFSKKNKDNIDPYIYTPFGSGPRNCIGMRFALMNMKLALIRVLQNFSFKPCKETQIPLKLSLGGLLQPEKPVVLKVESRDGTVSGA

Which inhibition in vivo at 30 mg/kg [1] does the source give for `NC(=O)c1cc(C(N)=O)n(-c2cccc(-c3cc(C(F)(F)F)ccc3C(F)(F)F)c2)n1` here?
The inhibition in vivo at 30 mg/kg was 56%.

What about the inhibition in vivo at 10 mg/kg [2] of the same compound?
The inhibition in vivo at 10 mg/kg was 44%.

And the inhibition at 10 µM [3]?
The inhibition at 10 µM was 0%.

What about the Activity [4] of the same compound?
Its Activity is “Non-toxic”.

And the IC50 [5]?
Its IC50 is over 25 µM.

What about the Activity [6] of the same compound?
The Activity was 6%.

What about the AUC [7] of the same compound?
Its AUC is 5.6 µM·h.

What about the Activity [8] of the same compound?
Its Activity is -2%.

What about the inhibition in vivo at 30 mg/kg [9] of the same compound?
The inhibition in vivo at 30 mg/kg was 53%.

What about the Activity [10] of the same compound?
Its Activity is “Non-toxic”.

What about the IC50 [11] of the same compound?
The IC50 was over 100 µM.

And the IC50 [12]?
The IC50 was over 100 µM.

What about the inhibition at 30 µM [13] of the same compound?
Its inhibition at 30 µM is 15%.

What about the Activity [14] of the same compound?
Its Activity is “Non-toxic”.

What about the concentration [15] of the same compound?
The concentration was 78.2 µM.

And the clearance [16]?
The clearance was 0.5 mL/min/kg.

And the AUC [17]?
Its AUC is 50 µM·h.

And the IC50 [18]?
Its IC50 is 1.32 µM.

What about the Cmax [19] of the same compound?
Its Cmax is 2.92 µM.

And the half-life [20]?
Its half-life is 12 h.

What about the remaining at 1 h, 10 uM [21] of the same compound?
The remaining at 1 h, 10 uM was over 99%.

And the Activity [22]?
Its Activity is “Non-toxic”.

What about the Activity [23] of the same compound?
The Activity was “Non-toxic”.

What about the Activity [24] of the same compound?
Its Activity is “Non-toxic”.

And the Activity [25]?
The Activity was “Non-toxic”.

What about the remaining at 1 h, 10 uM [26] of the same compound?
Its remaining at 1 h, 10 uM is over 99%.

And the half-life [27]?
The half-life was 3.1 h.

What about the inhibition in vivo at 3 mg/kg [28] of the same compound?
Its inhibition in vivo at 3 mg/kg is 30%.

What about the Activity [29] of the same compound?
The Activity was “Non-toxic”.

What about the Activity [30] of the same compound?
Its Activity is “Non-toxic”.

What about the bioavailability [31] of the same compound?
Its bioavailability is 60%.

What about the IC50 [32] of the same compound?
The IC50 was 2 µM.

What about the Activity [33] of the same compound?
The Activity was “Non-toxic”.

And the Activity [34]?
The Activity was “Non-toxic”.

What about the Activity [35] of the same compound?
The Activity was “Non-toxic”.

And the IC50 [36]?
Its IC50 is 20.3 µM.

What about the clearance [37] of the same compound?
Its clearance is 5 mL/min/kg.

What about the inhibition in vivo at 30 mg/kg [38] of the same compound?
Its inhibition in vivo at 30 mg/kg is 46%.

What about the AUC [39] of the same compound?
Its AUC is 372 µM·h.

What about the Activity [40] of the same compound?
The Activity was “Non-toxic”.

What about the Activity [41] of the same compound?
The Activity was “Non-toxic”.

What about the Activity [42] of the same compound?
The Activity was “Non-toxic”.

And the concentration [43]?
The concentration was 7.3 µM.

And the Activity [44]?
Its Activity is “Non-toxic”.

What about the Activity [45] of the same compound?
Its Activity is “Non-toxic”.

What about the Activity [46] of the same compound?
The Activity was “Non-toxic”.

What about the inhibition in vivo at 10 mg/kg [47] of the same compound?
Its inhibition in vivo at 10 mg/kg is 34%.
